Assay results taken from patent US20130090476A1, “Thiazolylpiperidine Derivatives as Fungicides” (priority 2009, published 2013).
Marks after values point to notes of the source that are not given here.

Tests used:
[1] = logP determination by HPLC (EEC Directive 79/831 Annex V.A8), LC-MS
Phytophthora infestans = test: whole plant or invertebrate; type: in vivo; details: in Solanum lycopersicum, 168 h, read-out: efficacy
[2] = pH 2.7
physchem = details: pH 2.7
[3] = pH 2.7, log P (pH2.7), pH 2.7, value given in the preparation text
[4] = pH 2.7, logP, * acidic range, pH 2.7, 0.1% aqueous formic acid/acetonitrile
[5] = pH 7.8, logP, ** neutral range, pH 7.8, 0.001 molar aqueous ammonium bicarbonate/acetonitrile

## Cc1cc(C(F)(F)F)nn1CC(=O)N1CCC(c2nc(CSc3cccc4ccccc34)cs2)CC1 [Compound I-1, 2-[5-Methyl-3-(trifluoromethyl)-1H-pyrazol-1-yl]-1-(4-{4-[(1-naphthylsulphanyl)methyl]-1,3-thiazol-2-yl}piperidin-1-yl)ethanone]
[1]; [3]
  chromatographic logP: 4.33
[1]; [4]
  chromatographic logP: 4.33
Phytophthora infestans
  pest or weed control at 500 ppm: ≥ 70%

## Cc1cc(C(F)(F)F)nn1CC(=O)N1CCC(c2nc(CSC34CC5CC(CC(C5)C3)C4)cs2)CC1 [Compound I-2, 1-[4-(4-{[(3S,5S,7S)-Adamantan-1-ylsulphanyl]methyl}-1,3-thiazol-2-yl)piperidin-1-yl]-2-[5-methyl-3-(trifluoromethyl)-1H-pyrazol-1-yl]ethanone]
[2]
  log P (pH2.7): 5.21
  logP: 5.21*

## Cc1cc(C(F)(F)F)nn1CC(=O)N1CCC(c2nc(CSC3CCCCC3)cs2)CC1 [Compound I-3, 1-(4-{4-[(Cyclohexylsulphanyl)methyl]-1,3-thiazol-2-yl}piperidin-1-yl)-2-[5-methyl-3-(trifluoromethyl)-1H-pyrazol-1-yl]ethanone]
[1]; [3]
  chromatographic logP: 4.3
[1]; [4]
  chromatographic logP: 4.3
Phytophthora infestans
  pest or weed control at 500 ppm: ≥ 70%

## Cc1cc(C(F)(F)F)nn1CC(=O)N1CCC(c2nc(CS(=O)(=O)C34CC5CC(CC(C5)C3)C4)cs2)CC1 [Compound I-6, 1-[4-(4-{[(3S,5S,7S)-Adamantan-1-ylsulphonyl]methyl}-1,3-thiazol-2-yl)piperidin-1-yl]-2-[5-methyl-3-(trifluoromethyl)-1H-pyrazol-1-yl]ethanone]
[2]
  log P (pH2.7): 3.42
  logP: 3.4*

## Cc1cc(C(F)(F)F)nn1CC(=O)N1CCC(c2nc(CS(=O)(=O)C3CCCCC3)cs2)CC1 [Compound I-7, 1-(4-{4-[(Cyclohexylsulphonyl)methyl]-1,3-thiazol-2-yl}piperidin-1-yl)-2-[5-methyl-3-(trifluoromethyl)-1H-pyrazol-1-yl]ethanone]
[1]; [3]
  chromatographic logP: 2.9
[1]; [4]
  chromatographic logP: 2.9
[1]; [5]
  chromatographic logP: 2.87
Phytophthora infestans
  pest or weed control at 500 ppm: ≥ 70%

## Cc1cc(C(F)(F)F)nn1CC(=O)N1CCC(c2nc(CS(=O)(=O)c3nnnn3-c3ccccc3)cs2)CC1 [Compound I-8, 2-[5-Methyl-3-(trifluoromethyl)-1H-pyrazol-1-yl]-1-[4-(4-{[(1-phenyl-1H-tetrazol-5-yl)sulphonyl]methyl}-1,3-thiazol-2-yl)piperidin-1-yl]ethanone]
[1]; [3]
  chromatographic logP: 3.1
[1]; [4]
  chromatographic logP: 3.07
Phytophthora infestans
  pest or weed control at 500 ppm: ≥ 70%

## Cc1cc(C(F)(F)F)nn1CC(=O)N1CCC(c2nc(CS(=O)(=O)c3cccc4cccnc34)cs2)CC1 [Compound I-9, 1-(4-{4-[(Quinolin-8-ylsulphonyl)methyl]-1,3-thiazol-2-yl}piperidin-1-yl)-2-[5-methyl-3-(trifluoromethyl)-1H-pyrazol-1-yl]ethanone]
[1]; [3]
  chromatographic logP: 2.63
[1]; [4]
  chromatographic logP: 2.63
Phytophthora infestans
  pest or weed control at 500 ppm: ≥ 70%

## Cc1cc(C(F)(F)F)nn1CC(=O)N1CCC(c2nc(CS(=O)(=O)c3cccc4ccccc34)cs2)CC1 [Compound I-10, 2-[5-Methyl-3-(trifluoromethyl)-1H-pyrazol-1-yl]-1-(4-{4-[(1-naphthylsulphonyl)methyl]-1,3-thiazol-2-yl}piperidin-1-yl)ethanone]
[1]; [3]
  chromatographic logP: 3.21
[1]; [4]
  chromatographic logP: 3.19
Phytophthora infestans
  pest or weed control at 500 ppm: ≥ 70%

## Cc1cc(C(F)(F)F)nn1CC(=O)N1CCC(c2nc(C[S+]([O-])c3cccc4ccccc34)cs2)CC1 (centres unmarked) [Compound I-13, 2-[5-Methyl-3-(trifluoromethyl)-1H-pyrazol-1-yl]-1-(4-{4-[(1-naphthylsulphinyl)methyl]-1,3-thiazol-2-yl}piperidin-1-yl)ethanone]
[1]; [3]
  chromatographic logP: 2.86
[1]; [4]
  chromatographic logP: 2.86
Phytophthora infestans
  pest or weed control at 500 ppm: ≥ 70%

## Cc1cc(C(F)(F)F)nn1CC(=S)N1CCC(c2nc(CSc3nnnn3-c3ccccc3)cs2)CC1 [Compound I-15, 2-[5-Methyl-3-(trifluoromethyl)-1H-pyrazol-1-yl]-1-[4-(4-{[(1-phenyl-1H-tetrazol-5-yl)sulphanyl]methyl}-1,3-thiazol-2-yl)piperidin-1-yl]ethanethione]
[1]; [3]
  chromatographic logP: 3.82
[1]; [4]
  chromatographic logP: 2.82
[1]; [5]
  chromatographic logP: 2.87
Phytophthora infestans
  pest or weed control at 500 ppm: ≥ 70%

## Cc1ccc([N+](=O)[O-])cc1NC(=O)N1CCC(c2nc(CSc3nnnn3-c3ccccc3)cs2)CC1 [Compound I-18]
[2]
  logP: 3.09*

## Cc1ccc(Cl)cc1NC(=O)N1CCC(c2nc(CSc3nnnn3-c3ccccc3)cs2)CC1 [Compound I-24]
[2]
  logP: 3.43*

## O=C(Cn1nc(C(F)F)cc1C(F)F)N1CCC(c2nc(CS(=O)(=O)c3nnnn3-c3ccccc3)cs2)CC1 [Compound I-29]
[2]
  logP: 2.97*

## COc1ccc(C)cc1NC(=O)N1CCC(c2nc(CSc3nnnn3-c3ccccc3)cs2)CC1 [Compound I-33]
[2]
  logP: 3.5*

## O=C(Cn1nc(C(F)(F)F)cc1C(F)(F)F)N1CCC(c2nc(CSc3nnnn3-c3ccccc3)cs2)CC1 [Compound I-34]
[2]
  logP: 3.8*

## O=C(Cn1nc(C(F)F)cc1C(F)F)N1CCC(c2nc(CSc3nnnn3-c3ccccc3)cs2)CC1 [Compound I-35]
[2]
  logP: 3.11*

## O=C(Cc1cc(Cl)ccc1Cl)N1CCC(c2nc(CSc3nnnn3-c3ccccc3)cs2)CC1 [Compound I-46]
[2]
  logP: 3.8*

## O=C(Nc1cc(Cl)ccc1Cl)N1CCC(c2nc(CSc3nnnn3-c3ccccc3)cs2)CC1 [Compound I-49]
[2]
  logP: 3.95*

## Cc1ccc(F)c(NC(=O)N2CCC(c3nc(CSc4nnnn4-c4ccccc4)cs3)CC2)c1 [Compound I-60]
[2]
  logP: 3.28*

## Cc1ccc(C)c(NC(=O)N2CCC(c3nc(CSC45CC6CC(CC(C6)C4)C5)cs3)CC2)c1 [Compound I-72]
[2]
  logP: 5.38*

## Cc1ccc(C)c(NC(=O)N2CCC(c3nc(CSc4nnnn4-c4ccccc4)cs3)CC2)c1 [Compound I-84]
[2]
  logP: 3.26*

## Cc1ccc(Cl)c(NC(=O)N2CCC(c3nc(CSc4nnnn4-c4ccccc4)cs3)CC2)c1 [Compound I-87]
[2]
  logP: 3.72*

## Cc1ccc(C)c(NC(=S)N2CCC(c3nc(CSc4nnnn4-c4ccccc4)cs3)CC2)c1 [Compound I-98]
[2]
  logP: 3.52*

## CC(C)(C)OC(=O)N1CCC(c2nc(CSC(=N)N)cs2)CC1 [IX-1, Amino[({2-[1-(tert-butoxycarbonyl)piperidin-4-yl]-1,3-thiazol-4-yl}methyl)sulphanyl]methaniminium iodide]
physchem
  chromatographic logP: 1.44
